In the supplement of paper PMC11281043:
± gives the standard deviation of the averaged measurements.

Columns and labels:
Details in all cases: exposure: 6-8 hpf to 5 dpf, scored at 6 dpf
[1] = tested on: Danio rerio embryo/larva; test: max % larvae with edema across tested concentrations; higher = more toxic; extreme values may be limits of the assay
[2] = tested on: Danio rerio embryo/larva; test: max % larvae with abnormal position across tested concentrations; higher = more toxic; extreme values may be limits of the assay
[3] = tested on: Danio rerio embryo/larva; test: max % larvae with pigmentation defects across tested concentrations; higher = more toxic
[4] = tested on: Danio rerio embryo/larva; test: max % larvae with craniofacial defects across tested concentrations; higher = more toxic; extreme values may be limits of the assay
[5] = tested on: Danio rerio embryo/larva; test: max % larvae with blood pooling across tested concentrations; higher = more toxic; extreme values may be limits of the assay
[6] = tested on: Danio rerio embryo/larva; test: max % larvae with uninflated swim bladder across tested concentrations; higher = more toxic; extreme values may be limits of the assay
[7] = tested on: Danio rerio embryo/larva; test: max % larvae with spinal defects across tested concentrations; higher = more toxic; extreme values may be limits of the assay
[8] = tested on: Danio rerio embryo/larva; test: max % larvae with tail defects across tested concentrations; higher = more toxic; extreme values may be limits of the assay
[9] = tested on: Danio rerio embryo/larva; test: max % larvae generally abnormal across tested concentrations; higher = more toxic; extreme values may be limits of the assay
[10] = tested on: Danio rerio embryo/larva; test: max % larvae with any abnormality across tested concentrations; max tested concentration (log10 uM): 2; higher = more toxic; extreme values may be limits of the assay
[11] = tested on: Danio rerio embryo/larva; test: max % larvae unhatched across tested concentrations; max tested concentration (log10 uM): 2; higher = more toxic

Row | Compound | max % larvae [1] | max % larvae [2] | max % larvae [3] | max % larvae [4] | max % larvae [5] | max % larvae [6] | max % larvae [7] | max % larvae [8] | max % larvae generally abnormal across tested concentrations [9] | max % larvae [10] | max % larvae unhatched across tested concentrations [11]
1 | C[N+](C)(C)CCCNS(=O)(=O)C(F)(F)C(F)(F)C(F)(F)C(F)(F)C(F)(F)C(F)(F)C(F)(F)C(F)(F)F (max tested concentration (log10 uM): 1.47712) | 50% | 12.5% | 0% | 50% | 0% | 25% | 0% | 0% | 50% |  | 
2 | O=C(CC(=O)C(F)(F)F)C(F)(F)F [1,1,1,5,5,5-Hexafluoro-2,4-pentanedione] (max tested concentration (log10 uM): 2) | 0% | 0% | 0% | 0% | 0% | 0% | 0% | 0% | 0% |  | 
3 | FC(F)(Br)C(F)(F)C(F)(F)C(F)(F)C(F)(F)C(F)(F)Br [1,6-Dibromododecafluorohexane] (max tested concentration (log10 uM): 2) | 4.17% | 0% | 0% | 0% | 0% | 0% | 0% | 0% | 4.17% |  | 
4 | CCCCCCCCC(F)(F)C(F)(F)C(F)(F)C(F)(F)C(F)(F)C(F)(F)F [1-(Perfluorohexyl)octane] (max tested concentration (log10 uM): 1.60206) | 0% | 0% | 0% | 0% | 0% | 0% | 0% | 0% | 0% |  | 
5 | FC(F)(F)C(F)(F)C(F)(F)C(F)(F)C(F)(F)C(F)(F)C(F)(F)CCI [1-Iodo-1H,1H,2H,2H-perfluorononane] (max tested concentration (log10 uM): 1.60206) | 0% | 0% | 0% | 0% | 0% | 0% | 0% | 0% | 0% |  | 
6 | FC(F)(F)C(F)(F)C(F)(F)C(F)(F)CCI [1H,1H,2H,2H-Perfluorohexyl iodide] (max tested concentration (log10 uM): 2) | 8.33% | 0% | 0% | 0% | 0% | 0% | 0% | 0% | 8.33% |  | 
7 | C=CC(=O)OCC(F)(F)C(F)(F)C(F)(F)COC(=O)C=C [1H,1H,5H,5H-Perfluoro-1,5-pentanediol diacrylate] (max tested concentration (log10 uM): 1) | 33.3% | 0% | 0% | 33.3% | 0% | 16.7% | 8.33% | 25% | 33.3% |  | 
8 | OCC(F)(F)C(F)(F)C(F)(F)C(F)F [1H,1H,5H-Perfluoropentanol] (max tested concentration (log10 uM): 2) | 0% | 0% | 0% | 0% | 0% | 0% | 0% | 0% | 0% |  | 
9 | C=C(C)C(=O)OCC(F)(F)C(F)(F)C(F)(F)C(F)F [1H,1H,5H-Perfluoropentyl methacrylate] (max tested concentration (log10 uM): 2) | 25% | 0% | 0% | 16.7% | 0% | 33.3% | 4.17% | 16.7% | 25% |  | 
10 | OCC(F)(F)C(F)(F)C(F)(F)C(F)(F)C(F)(F)C(F)F [1H,1H,7H-Dodecafluoro-1-heptanol] (max tested concentration (log10 uM): 2) | 8.33% | 0% | 0% | 0% | 0% | 0% | 0% | 0% | 8.33% |  | 
11 | OCC(F)(F)OC(F)(F)C(F)(F)OC(F)(F)CO [1H,1H,8H,8H-Perfluoro-3,6-dioxaoctane-1,8-diol] (max tested concentration (log10 uM): 2) | 0% | 0% | 0% | 0% | 0% | 0% | 0% | 0% | 0% |  | 
12 | C=CC(=O)OCC(F)(F)C(F)(F)C(F)(F)C(F)(F)C(F)(F)C(F)(F)C(F)(F)C(F)F [1H,1H,9H-Perfluorononyl acrylate] (max tested concentration (log10 uM): 2) | 9.09% | 4.55% | 0% | 9.09% | 0% | 16.7% | 0% | 2.27% | 9.09% |  | 
13 | OCC(F)(F)OC(F)(F)C(F)(F)OC(F)(F)C(F)(F)OC(F)(F)CO [1H,1H,11H,11H-Perfluorotetraethylene glycol] (max tested concentration (log10 uM): 1.47712) | 0% | 0% | 0% | 0% | 0% | 0% | 0% | 0% | 0% |  | 
14 | NCC(F)(F)C(F)(F)C(F)(F)C(F)(F)C(F)(F)C(F)(F)C(F)(F)C(F)(F)F [1H,1H-Perfluorononylamine] (max tested concentration (log10 uM): 1.60206) | 50% | 25% | 0% | 50% | 50% | 50% | 0% | 0% | 75% |  | 
15 | C=CC(=O)OCC(F)(F)C(F)(F)C(F)(F)C(F)(F)C(F)(F)C(F)(F)C(F)(F)F [1H,1H-Perfluorooctyl acrylate] (max tested concentration (log10 uM): 2) | 0% | 0% | 0% | 0% | 0% | 0% | 0% | 0% | 0% |  | 
16 | NCC(F)(F)C(F)(F)C(F)(F)C(F)(F)C(F)(F)C(F)(F)C(F)(F)F [1H,1H-Perfluorooctylamine] (max tested concentration (log10 uM): 2) | 22.5 ± 32% | 0% | 0% | 15 ± 21% | 0% | 20 ± 28% | 0% | 0% | 20 ± 28% |  | 
17 | FC(F)(F)C(F)(F)C(F)(F)C(F)(F)C(F)(F)C(F)(F)CCS [2-(Perfluorohexyl)ethanethiol] (max tested concentration (log10 uM): 1.60206) | 8.33% | 0% | 0% | 0% | 0% | 16.7% | 0% | 0% | 8.33% |  | 
18 | C=C(C)C(=O)OCCC(F)(F)C(F)(F)C(F)(F)C(F)(F)C(F)(F)C(F)(F)F [2-(Perfluorohexyl)ethyl methacrylate] (max tested concentration (log10 uM): 2) | 0% | 0% | 0% | 0% | 0% | 0% | 0% | 0% | 0% |  | 
19 | OCCC(F)(F)C(F)(F)C(F)(F)C(F)(F)C(F)(F)C(F)(F)C(F)(F)C(F)(F)F [2-(Perfluorooctyl)ethanol] (max tested concentration (log10 uM): 2) | 19.4% | 8.33% | 0% | 0% | 0% | 44.4% | 0% | 0% | 22.2% |  | 
20 | FC(F)(F)C(F)(F)C(F)(F)C(F)(F)C(F)(F)C(F)(F)C(F)(F)C(F)(F)CCS [2-(Perfluorooctyl)ethanthiol] (max tested concentration (log10 uM): 1.60206) | 8.33% | 0% | 0% | 0% | 0% | 8.33% | 0% | 0% | 8.33% |  | 
21 | C=CC(=O)OCCC(F)(F)C(F)(F)C(F)(F)C(F)(F)C(F)(F)C(F)(F)C(F)(F)C(F)(F)F [2-(Perfluorooctyl)ethyl acrylate] (max tested concentration (log10 uM): 2) | 0% | 0% | 0% | 0% | 0% | 0% | 0% | 0% | 0% |  | 
22 | C=C(C)C(=O)OCCC(F)(F)C(F)(F)C(F)(F)C(F)(F)C(F)(F)C(F)(F)C(F)(F)C(F)(F)F [2-(Perfluorooctyl)ethyl methacrylate] (max tested concentration (log10 uM): 2) | 0% | 0% | 0% | 0% | 0% | 0% | 0% | 0% | 0% |  | 
23 | FC(F)(F)C(F)(C(F)(F)F)C(F)(F)C(F)(F)CC1CO1 (stereo not drawn) [3-(Perfluoro-3-methylbutyl)-1,2-propenoxide] (max tested concentration (log10 uM): 1.60206) | 0% | 0% | 0% | 0% | 0% | 0% | 0% | 0% | 0% |  | 
24 | O=C(O)C=CC(F)(C(F)(F)F)C(F)(F)F [3-(Perfluoroisopropyl)-2-propenoic acid] (max tested concentration (log10 uM): 2) | 16.7% | 8.33% | 0% | 16.7% | 16.7% | 16.7% | 8.33% | 8.33% | 16.7% |  | 
25 | OCCCC(F)(F)C(F)(F)C(F)(F)C(F)(F)C(F)(F)C(F)(F)C(F)(F)C(F)(F)F [3-(Perfluorooctyl)propanol] (max tested concentration (log10 uM): 2) | 0% | 0% | 0% | 0% | 0% | 0% | 0% | 0% | 0% |  | 
26 | OCC(F)(F)C(F)(F)C(F)(F)F [3:1 Fluorotelomer alcohol] (max tested concentration (log10 uM): 2) | 8.33% | 0% | 0% | 0% | 8.33% | 0% | 0% | 0% | 8.33% |  | 
27 | O=C(O)CCC(F)(C(F)(F)F)C(F)(F)F [4,4-bis(Trifluoromethyl)-4-fluoropropanoic acid] (max tested concentration (log10 uM): 2) | 0% | 0% | 0% | 0% | 0% | 0% | 0% | 0% | 0% |  | 
28 | OCCC(F)(F)C(F)(F)C(F)(F)C(F)(F)F [4:2 Fluorotelomer alcohol] (max tested concentration (log10 uM): 2) | 4.17% | 0% | 0% | 0% | 0% | 0% | 0% | 0% | 4.17% |  | 
29 | O=S(=O)(O)CCC(F)(F)C(F)(F)C(F)(F)C(F)(F)F [4:2 Fluorotelomer sulfonic acid] (max tested concentration (log10 uM): 2) | 0% | 0% | 0% | 0% | 0% | 0% | 0% | 0% | 0% |  | 
30 | O=C(O)C(F)(F)C(F)(F)C(F)(F)C(F)(F)C(F)(F)C(F)(F)C(F)(F)F [Perfluorooctanoic acid] |  |  |  |  |  |  |  |  |  | 16.7% | 0%
